Structures can show the parent of a compound that is named as a salt. Where two headings read alike, the source gives them in different places.
Legend:
human 5-HT6 receptor [1] = target: T1, human 5-HT6 receptor (Homo sapiens, UniProt P50406); assay: 5-HT6 receptor binding assay ([3H]-LSD displacement, SPA, membranes of transfected HEK293 cells)
T1 construct: expressed in transfected cells; host or cells: HEK293 (G-418 selected)

human 5-HT6 receptor [2] = target: T1, human 5-HT6 receptor; assay: 5-HT6 receptor intrinsic activity assay (inhibition of 5-HT induced increase in cAMP in HEK293/5-HT6 cells); type: cell-based; settings: read-out: Antagonist potency at the human 5-HT6 receptor, IC50,corr
Protocol: (1997) Neuropharmacology 36: 713-720). Briefly, HEK293/5-HT6 cells were seeded in polylysine coated 96-well plates at a density of 25,000/well and grown in DMEM (Dulbecco's Modified Eagle Medium) (without phenol-red) containing 5% dialyzed Foetal Bovine Serum for 48 h at 37° C. in a 5% CO2 incubator. The medium was then aspirated and replaced by 0.1 ml assay medium (Hanks Balance Salt Solution containing 20 mM HEPES, 1.5 mM isobutylmethylxanthine and 1 mg/ml bovine serum albumin). After addition of test substances, 50 μl dissolved in assay medium, the cells were incubated for 10 min at 37° C. in a 5% CO2 incubator. The medium was again aspirated and the cAMP content was determined using a radioactive cAMP kit (Amersham Pharmacia Biotech, BIOTRAK RPA559).

[3] = [3H]LSD 3 nM, HEK293 membranes, read-out: Binding affinity (Ki) at the human 5-HT6 receptor

T1 sequence (P50406 whole entry): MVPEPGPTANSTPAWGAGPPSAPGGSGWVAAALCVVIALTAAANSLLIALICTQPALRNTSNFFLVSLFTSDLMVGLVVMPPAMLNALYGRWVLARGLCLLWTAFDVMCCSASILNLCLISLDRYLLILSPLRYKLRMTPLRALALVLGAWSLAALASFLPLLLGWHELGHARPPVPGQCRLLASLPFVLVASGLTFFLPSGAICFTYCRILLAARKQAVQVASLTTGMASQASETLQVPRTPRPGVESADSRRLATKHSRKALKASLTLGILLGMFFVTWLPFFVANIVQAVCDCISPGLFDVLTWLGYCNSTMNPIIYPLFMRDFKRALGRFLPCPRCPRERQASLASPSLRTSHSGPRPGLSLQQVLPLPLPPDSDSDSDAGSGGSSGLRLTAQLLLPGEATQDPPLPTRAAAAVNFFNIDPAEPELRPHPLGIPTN

Row | Compound | IC50 (human 5-HT6 receptor [2]) | other results
1 | COc1ccc(C)cc1OS(=O)(=O)c1cc(N2CCNCC2)c2occc2c1 [Example 1, 2-Methoxy-5-methylphenyl 7-piperazin-1-yl-1-benzofuran-5-sulfonate, trifluoroacetate] |  | Ki (human 5-HT6 receptor [1]; [3]): 0.6 nM
2 | O=S(=O)(Oc1ccccc1Cl)c1cc(N2CCNCC2)c2occc2c1 [Example 2, 2-Chlorophenyl 7-piperazin-1-yl-1-benzofuran-5-sulfonate, trifluoroacetate] | 24 nM | Ki (human 5-HT6 receptor [1]; [3]): 2.3 nM
3 | O=S(=O)(Oc1ccccc1C(F)(F)F)c1cc(N2CCNCC2)c2occc2c1 [Example 3, 2-(Trifluoromethyl)phenyl 7-piperazin-1-yl-1-benzofuran-5-sulfonate, trifluoroacetate] |  | Ki (human 5-HT6 receptor [1]; [3]): 2 nM
4 | COc1ccc(C)cc1OS(=O)(=O)c1cc(CN2CCN(C)CC2)c2occc2c1 [Example 5, 2-Methoxy-5-methylphenyl 7-[(4-methylpiperazin-1-yl)methyl]-1-benzofuran-5-sulfonate bis(trifluoroacetate)] | 49 nM | 
5 | NCCc1c[nH]c2ccc(O)cc12 [Example 5-HT, 5-hydroxytryptamine] |  | Hill coefficient (human 5-HT6 receptor [1]; over three experiments): 0.94 (SD 0.09)
6 | CN1CCN(c2cc(S(=O)(=O)Oc3cccnc3)cc3ccoc23)CC1 [Example 7, Pyridin-3-yl 7-(4-methylpiperazin-1-yl)-1-benzofuran-5-sulfonate trifluoroacetate] | 73 nM | 
7 | COc1cccc(OS(=O)(=O)c2cc(N3CCN[C@H](C)C3)c3occc3c2)c1OC [Example 9, 2,3-Dimethoxyphenyl 7-[(3R)-3-methylpiperazin-1-yl]-1-benzofuran-5-sulfonate trifluoroacetate] | 49 nM | 
8 | C[C@@H]1CN(Cc2cc(S(=O)(=O)Oc3ccccc3C(N)=O)cc3ccoc23)CCN1 [Example 16, 2-(Aminocarbonyl)phenyl 7-{[(3R)-3-methylpiperazin-1-yl]methyl}-1-benzofuran-5-sulfonate bis(trifluoroacetate)] | 199 nM | 
9 | COc1ccc(C)cc1OS(=O)(=O)c1cc(CN2CCCNCC2)c2occc2c1 [Example 18, 2-Methoxy-5-methylphenyl 7-(1,4-diazepan-1-ylmethyl)-1-benzofuran-5-sulfonate trifluoroacetate] | 487 nM | 
10 | CN1C[C@@H](NS(=O)(=O)N(C)C)C[C@@H]2c3cccc4c3c(cn4C)C[C@H]21 [mesulergide] |  | Ki (human 5-HT6 receptor [1]; over all average, 5-HT tested against two different membrane preparations, read-out: Ki value, inhibition of [3H]LSD binding (rank order of potency of unlabelled ligands)): 1970 nM
11 | CC[C@@H](CO)NC(=O)[C@@H]1C=C2c3cccc4c3c(cn4C)C[C@H]2N(C)C1 [methysergide] |  | Ki (human 5-HT6 receptor [1]): 482 nM

Source: patent publication US20060142269A1, “New compounds” (priority 2004, published 2006)
